Measurements published in ChEMBL document CHEMBL4382216, “Asymmetric synthesis and biological evaluation of imidazole- and oxazole-containing synthetic lipoxin A4 mimetics (sLXms)” (Eur J Med Chem, 2019).
Active and inactive are the calls of the source. No cut-off for these calls is given here.

Assays:
[1] = species on record: Homo sapiens; experiment: Activation of Luc-fused NFkB (unknown origin) expressed in non-stimulated human THP1 cells assessed as relative luminescence unit at 10^-6 M after 24 hrs by luciferase reporter gene assay (reference value: 100%); format: cell-based
[2] = tested on: THP-1; experiment: Cytotoxicity against human THP1 cells harboring NFkB-Luc assessed as LDH release at 10'6 M after 24 hrs by spectrophotometric method relative to control; format: cell-based; conditions: thp-1, 24 h
[3] = target: T1, N-formyl peptide receptor 2 (Homo sapiens) (UniProt P25090); experiment: Agonist activity at ALX/FPR2 in human THP1 cells harboring NF-kB-Luc assessed as inhibition of LPS-induced NFkB signalling activation by measuring TNFalpha secretion at 10^-6 M pretreated for 30 mins followed by LPS stimulation for 24 hrs by electrochemiluminescence assay (reference value: 100%); format: cell-based; parameters: scale not given: the % may be the effect or the level left
T1 sequence (whole entry): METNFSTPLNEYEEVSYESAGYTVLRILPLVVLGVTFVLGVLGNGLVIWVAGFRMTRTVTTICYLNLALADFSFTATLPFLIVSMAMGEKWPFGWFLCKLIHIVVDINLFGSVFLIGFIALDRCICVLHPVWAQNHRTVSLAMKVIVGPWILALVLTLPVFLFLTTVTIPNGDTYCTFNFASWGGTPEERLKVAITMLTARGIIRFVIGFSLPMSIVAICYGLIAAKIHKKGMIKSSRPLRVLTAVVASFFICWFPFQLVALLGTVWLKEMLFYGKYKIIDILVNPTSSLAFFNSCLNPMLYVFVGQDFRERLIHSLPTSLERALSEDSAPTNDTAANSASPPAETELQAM

[4] = target: T1, N-formyl peptide receptor 2 (Homo sapiens); experiment: Agonist activity at ALX/FPR2 in human THP1 cells harboring NF-kB-Luc assessed as inhibition of LPS-induced NFkB signalling activation by measuring IL-6 secretion at 10^-6 M pretreated for 30 mins followed by LPS stimulation for 24 hrs by electrochemiluminescence assay (reference value: 100%); format: cell-based; parameters: scale not given: the % may be the effect or the level left
[5] = target: T1, N-formyl peptide receptor 2 (Homo sapiens); experiment: Agonist activity at ALX/FPR2 in human THP1 cells harboring NF-kB-Luc assessed as inhibition of LPS-induced NFkB signalling activation by measuring IL-1beta secretion at 10^-6 M pretreated for 30 mins followed by LPS stimulation for 24 hrs by electrochemiluminescence assay (reference value: 100%); format: cell-based; parameters: scale not given: the % may be the effect or the level left
[6] = tested on: Mus musculus; experiment: (§1) Anti-inflammatory activity in zymosan-induced C57BL/6J mouse peritonitis model assessed as total cell count in peritoneal cavity at 25 ug, ip pretreated for 1 hr followed by zymosan treatment and redosing of test compound at 1 hr post zymosan addition and measured 4 hrs post zymosan addition by flow cytometry (reference value: 100%); format: functional
[7] = target: T1, N-formyl peptide receptor 2 (Homo sapiens); experiment: Agonist activity at ALX/FPR2 in human THP1 cells harboring NF-kB-Luc assessed as inhibition of LPS-induced NFkB signalling activation by measuring IFNgamma secretion at 10^-6 M pretreated for 30 mins followed by LPS stimulation for 24 hrs by electrochemiluminescence assay (reference value: 100%); format: cell-based; parameters: scale not given: the % may be the effect or the level left
[8] = tested on: Mus musculus; experiment: as §1, with “PMN leukocytes level” for “total cell count”; format: functional
[9] = target: T1, N-formyl peptide receptor 2 (Homo sapiens); experiment: Agonist activity at ALX/FPR2 in human THP1 cells harboring NF-kB-Luc assessed as inhibition of LPS-induced NFkB signalling activation by measuring NF-kB activation level at 10^-6 M pretreated for 30 mins followed by LPS stimulation for 24 hrs by luciferase reporter gene assay; format: cell-based; parameters: scale not given: the % may be the effect or the level left
[10] = target: T1, N-formyl peptide receptor 2 (Homo sapiens); experiment: Agonist activity at ALX/FPR2 in human THP1 cells harboring NF-kB-Luc assessed as inhibition of LPS-induced NFkB signalling activation by measuring IL-12p70 secretion at 10^-6 M pretreated for 30 mins followed by LPS stimulation for 24 hrs by electrochemiluminescence assay (reference value: 100%); format: cell-based; parameters: scale not given: the % may be the effect or the level left
[11] = tested on: HEK293; experiment: Induction of intracellular calcium accumulation in HEK293 cells at 1 uM by Fluo-4 dye based fluorescence spectrophotometric assay; format: functional, cell-based; conditions: Homo sapiens
[12] = target: T1, N-formyl peptide receptor 2 (Homo sapiens); experiment: Agonist activity at ALX/FPR2 (unknown origin) expressed in HEK293 cells co-expressing Galphaq assessed as induction of intracellular calcium accumulation at 1 uM by Fluo-4 dye based fluorescence spectrophotometric assay; format: functional, cell-based

Compound	Activity [1] [%]	fold change (FC) [2]	Activity [3] [%]	Activity [4] [%]	Activity [5] [%]	Emax [6] [%]	Activity [7] [%]	Emax [8] [%]	Activity [9] [%]	Activity [10] [%]	Activity [11]	Activity [12]
C[C@@H]1C[C@H]2[C@@H]3CCC4=CC(=O)C=C[C@]4(C)[C@@]3(F)[C@@H](O)C[C@]2(C)[C@@]1(O)C(=O)CO [DEXAMETHASONE]	1.6	1.3	58.1	1.5	13.6	46.7	45.1	51.5	53.2	62.6	–	–
Nc1ncnc2c1ncn2[C@@H]1O[C@H](COP(=O)(O)OP(=O)(O)OP(=O)(O)O)[C@@H](O)[C@H]1O	–	–	–	–	–	–	–	–	–	–	Active	Active
